Measured values taken from ChEMBL document CHEMBL3885881, “DrugMatrix”.

Organism: Rattus norvegicus
Assay: DrugMatrix - Regimen: Daily Repeat
Format: toxicity, organism-based, Sprague-Dawley
Set-up: regimen Daily Repeat, gender Male, age 6-8 weeks
Conditions: in vivo, po, route oral GAVAGE, vehicle .5 % CMC; for BASOPHIL / EOSINOPHIL / ERYTHROCYTE COUNT / HEMATOCRIT / HEMOGLOBIN / LEUKOCYTE COUNT / LYMPHOCYTE / MEAN CORPUSCULAR HEMOGLOBIN / MEAN CORPUSCULAR HEMOGLOBIN CONCENTRATION / MEAN CORPUSCULAR VOLUME / MONOCYTE / NEUTROPHIL / PLATELET COUNT: tissue Blood
[1] = 0 mg/kg, […], tissue Plasma, dose level Control, time 28 day
[2] = 30 mg/kg, 72 h, dose level M1, time 3 day
[3] = 30 mg/kg, 72 h, tissue Plasma, dose level M1, time 3 day
[4] = 30 mg/kg, 120 h, dose level M1, time 5 day
[5] = 30 mg/kg, 120 h, tissue Plasma, dose level M1, time 5 day
[6] = 300 mg/kg, 72 h, dose level High, time 3 day
[7] = 300 mg/kg, 72 h, tissue Plasma, dose level High, time 3 day
[8] = 300 mg/kg, 120 h, dose level High, time 5 day
[9] = 300 mg/kg, 120 h, tissue Plasma, dose level High, time 5 day

Cc1ccc2cc3c(ccc4ccccc43)c3c2c1CC3 [3-METHYLCHOLANTHRENE]
CHOLESTEROL [1]: 59.6 mg/dL
CREATINE PHOSPHOKINASE [1]: 121.8 u/L
CREATININE [1]: 0.6 mg/dL
GLUCOSE [1]: 143 mg/dL
LACTATE DEHYDROGENASE [1]: 87.8 u/L
LIPASE [1]: 17.4 u/L
PHOSPHORUS [1]: 8.68 mg/dL
POTASSIUM [1]: 6.02 MEQ/L
SODIUM [1]: 152.8 MEQ/L
TOTAL BILIRUBIN [1]: 0.26 mg/dL
TOTAL PROTEIN [1]: 6.92 G/DL
URIC ACID [1]: 0.52 mg/dL
BASOPHIL [2]: 0.4%
EOSINOPHIL [2]: 0.4%
ERYTHROCYTE COUNT [2]: 6.58 x10E6/uL
HEMATOCRIT [2]: 41.43%
HEMOGLOBIN [2]: 13.13 G/DL
LEUKOCYTE COUNT [2]: 12.08 x10E3/uL
LYMPHOCYTE [2]: 83.17%
MEAN CORPUSCULAR HEMOGLOBIN [2]: 20 pg
MEAN CORPUSCULAR HEMOGLOBIN CONCENTRATION [2]: 31.7 G/DL
MEAN CORPUSCULAR VOLUME [2]: 63.07 fL
MONOCYTE [2]: 2.4%
NEUTROPHIL [2]: 12.5%
PLATELET COUNT [2]: 1282.33 x10E3/uL
ALANINE AMINOTRANSFERASE [3]: 39.67 u/L
ALBUMIN [3]: 3.57 G/DL
ALKALINE PHOSPHATASE [3]: 304 u/L
ASPARTATE AMINOTRANSFERASE [3]: 67.67 u/L
BLOOD UREA NITROGEN [3]: 12.67 mg/dL
CHLORIDE [3]: 104 MEQ/L
CHOLESTEROL [3]: 97.67 mg/dL
CREATINE PHOSPHOKINASE [3]: 181.67 u/L
CREATININE [3]: 0.37 mg/dL
GLUCOSE [3]: 174.33 mg/dL
PHOSPHORUS [3]: 12.23 mg/dL
POTASSIUM [3]: 6.87 MEQ/L
SODIUM [3]: 147.67 MEQ/L
TOTAL BILIRUBIN [3]: 0.43 mg/dL
TOTAL PROTEIN [3]: 6.03 G/DL
BASOPHIL [4]: 0.43%
EOSINOPHIL [4]: 0.27%
ERYTHROCYTE COUNT [4]: 6.57 x10E6/uL
HEMATOCRIT [4]: 43.27%
HEMOGLOBIN [4]: 13.43 G/DL
LEUKOCYTE COUNT [4]: 10.87 x10E3/uL
LYMPHOCYTE [4]: 82.07%
MEAN CORPUSCULAR HEMOGLOBIN [4]: 20.43 pg
MEAN CORPUSCULAR HEMOGLOBIN CONCENTRATION [4]: 31.07 G/DL
MEAN CORPUSCULAR VOLUME [4]: 65.87 fL
MONOCYTE [4]: 2.43%
NEUTROPHIL [4]: 13.57%
PLATELET COUNT [4]: 1575.33 x10E3/uL
ALANINE AMINOTRANSFERASE [5]: 38.33 u/L
ALBUMIN [5]: 3.47 G/DL
ALKALINE PHOSPHATASE [5]: 335.67 u/L
ASPARTATE AMINOTRANSFERASE [5]: 70.67 u/L
BLOOD UREA NITROGEN [5]: 15 mg/dL
CHLORIDE [5]: 103.33 MEQ/L
CHOLESTEROL [5]: 82 mg/dL
CREATINE PHOSPHOKINASE [5]: 189.33 u/L
CREATININE [5]: 0.4 mg/dL
GLUCOSE [5]: 182 mg/dL
PHOSPHORUS [5]: 12.6 mg/dL
POTASSIUM [5]: 6.87 MEQ/L
SODIUM [5]: 148.33 MEQ/L
TOTAL BILIRUBIN [5]: 0.4 mg/dL
TOTAL PROTEIN [5]: 5.77 G/DL
BASOPHIL [6]: 0.4%
EOSINOPHIL [6]: 0.37%
ERYTHROCYTE COUNT [6]: 6.99 x10E6/uL
HEMATOCRIT [6]: 43.53%
HEMOGLOBIN [6]: 13.6 G/DL
LEUKOCYTE COUNT [6]: 10.06 x10E3/uL
LYMPHOCYTE [6]: 78.97%
MEAN CORPUSCULAR HEMOGLOBIN [6]: 19.47 pg
MEAN CORPUSCULAR HEMOGLOBIN CONCENTRATION [6]: 31.3 G/DL
MEAN CORPUSCULAR VOLUME [6]: 62.23 fL
MONOCYTE [6]: 2.83%
NEUTROPHIL [6]: 15.97%
PLATELET COUNT [6]: 1201 x10E3/uL
ALANINE AMINOTRANSFERASE [7]: 33.33 u/L
ALBUMIN [7]: 3.53 G/DL
ALKALINE PHOSPHATASE [7]: 316 u/L
ASPARTATE AMINOTRANSFERASE [7]: 60 u/L
BLOOD UREA NITROGEN [7]: 12.67 mg/dL
CHLORIDE [7]: 103.67 MEQ/L
CHOLESTEROL [7]: 97.67 mg/dL
CREATINE PHOSPHOKINASE [7]: 153 u/L
CREATININE [7]: 0.43 mg/dL
GLUCOSE [7]: 185.67 mg/dL
PHOSPHORUS [7]: 12.47 mg/dL
POTASSIUM [7]: 6.9 MEQ/L
SODIUM [7]: 147 MEQ/L
TOTAL BILIRUBIN [7]: 0.5 mg/dL
TOTAL PROTEIN [7]: 5.83 G/DL
BASOPHIL [8]: 0.55%
EOSINOPHIL [8]: 0.15%
ERYTHROCYTE COUNT [8]: 6.96 x10E6/uL
HEMATOCRIT [8]: 44.15%
HEMOGLOBIN [8]: 14.05 G/DL
LEUKOCYTE COUNT [8]: 9.75 x10E3/uL
LYMPHOCYTE [8]: 87.2%
MEAN CORPUSCULAR HEMOGLOBIN [8]: 20.2 pg
MEAN CORPUSCULAR HEMOGLOBIN CONCENTRATION [8]: 31.8 G/DL
MEAN CORPUSCULAR VOLUME [8]: 63.45 fL
MONOCYTE [8]: 2.05%
NEUTROPHIL [8]: 8.8%
PLATELET COUNT [8]: 1398 x10E3/uL
ALANINE AMINOTRANSFERASE [9]: 37 u/L
ALBUMIN [9]: 3.63 G/DL
ALKALINE PHOSPHATASE [9]: 280 u/L
ASPARTATE AMINOTRANSFERASE [9]: 66.33 u/L
BLOOD UREA NITROGEN [9]: 14.67 mg/dL
CHLORIDE [9]: 103 MEQ/L
CHOLESTEROL [9]: 112 mg/dL
CREATINE PHOSPHOKINASE [9]: 163.67 u/L
CREATININE [9]: 0.4 mg/dL
GLUCOSE [9]: 178.33 mg/dL
PHOSPHORUS [9]: 13.37 mg/dL
POTASSIUM [9]: 7.9 MEQ/L
SODIUM [9]: 147.33 MEQ/L
TOTAL BILIRUBIN [9]: 0.4 mg/dL
TOTAL PROTEIN [9]: 6.13 G/DL
